Test results: ChEMBL document CHEMBL5230089, “Small-Molecule Fms-like Tyrosine Kinase 3 Inhibitors: An Attractive and Efficient Method for the Treatment of Acute Myeloid Leukemia” (J Med Chem, 2020)
Values belong to the molecule of their own block, whether it stands above or below them.

Legend:
[1] = test system: MOLM-13; test: cells; conditions: Homo sapiens, MOLM-13, 72 h
[2] = test system: MV4-11; test: cells; conditions: Homo sapiens, MV4-11, 48 h
Description: Antiproliferative activity against human MV4-11 cells assessed as reduction in cell viability after 48 hrs by Alamar Blue assay

[3] = test system: MV4-11; test: cells; conditions: Homo sapiens, MV4-11, 72 h
Description: Cytotoxicity against human MV4-11 cells assessed as cell viability incubated for 72 hrs by Cell titer-blue assay

[4] = test system: MOLM-14; test: cells; conditions: Homo sapiens, MOLM-14, 72 h
[5] = test system: MOLM-13; test: cells; conditions: Homo sapiens, MOLM-13, 72 h; remark: listed apart in the source
Description: Cytotoxicity against human MOLM-13 cells assessed as reduction in cell viability incubated for 72 hrs

[6] = test system: BaF3; test: cells; conditions: Mus musculus, BaF3, 72 h
[7] = test system: MOLM-14; test: Cytotoxicity against human MOLM-14 cells assessed as reduction in cell viability incubated for 72 hrs; format: functional, cell-based; conditions: MOLM-14, 72 h
[8] = test system: MOLM-13; test: Cytotoxicity against human MOLM-13 cells assessed as cell viability incubated for 72 hrs by Cell titer-blue assay; format: functional, cell-based; conditions: MOLM-13, 72 h
[9] = test system: Receptor-type tyrosine-protein kinase FLT3 (Homo sapiens), P36888 [UNDEFINED MUTATION]
[10] = test system: MV4-11; test: Growth inhibition of human MV4-11 cells assessed as reduction in cell viability at 50 uM measured after 72 hrs by CCK8 assay; format: functional
[11] = target: T1, Receptor-type tyrosine-protein kinase FLT3 (Homo sapiens, UniProt P36888); test: Inhibition of FLT3 (unknown origin)
T1 sequence (P36888 whole entry): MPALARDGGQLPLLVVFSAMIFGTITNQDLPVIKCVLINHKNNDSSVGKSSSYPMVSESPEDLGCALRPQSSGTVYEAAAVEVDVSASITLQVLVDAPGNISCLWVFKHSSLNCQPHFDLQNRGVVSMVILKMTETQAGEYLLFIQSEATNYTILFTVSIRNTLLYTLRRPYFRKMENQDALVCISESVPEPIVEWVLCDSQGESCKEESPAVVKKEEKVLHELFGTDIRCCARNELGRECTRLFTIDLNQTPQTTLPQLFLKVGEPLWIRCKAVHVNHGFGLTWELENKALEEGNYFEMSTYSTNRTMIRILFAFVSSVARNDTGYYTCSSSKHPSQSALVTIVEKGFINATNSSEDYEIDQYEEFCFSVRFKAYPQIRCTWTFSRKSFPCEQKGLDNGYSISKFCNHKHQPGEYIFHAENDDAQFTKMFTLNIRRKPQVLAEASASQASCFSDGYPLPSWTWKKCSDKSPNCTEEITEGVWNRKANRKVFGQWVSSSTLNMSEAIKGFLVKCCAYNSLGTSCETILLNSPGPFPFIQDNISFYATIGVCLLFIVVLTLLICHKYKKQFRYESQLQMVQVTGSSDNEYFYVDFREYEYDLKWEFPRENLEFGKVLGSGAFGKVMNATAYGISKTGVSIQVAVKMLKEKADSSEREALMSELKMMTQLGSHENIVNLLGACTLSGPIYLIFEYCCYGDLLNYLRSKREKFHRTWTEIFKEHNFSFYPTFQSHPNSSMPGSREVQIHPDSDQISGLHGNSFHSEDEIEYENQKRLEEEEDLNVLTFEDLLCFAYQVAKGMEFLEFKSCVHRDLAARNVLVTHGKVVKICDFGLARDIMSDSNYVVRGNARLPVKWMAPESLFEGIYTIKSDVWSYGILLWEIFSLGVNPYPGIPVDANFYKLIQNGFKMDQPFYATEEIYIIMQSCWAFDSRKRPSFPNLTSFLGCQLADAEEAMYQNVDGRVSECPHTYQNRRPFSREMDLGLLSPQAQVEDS

[12] = test system: RS4-11; test: Growth inhibition human RS4-11 cell assessed as reduction in cell viability at 50 uM measured after 72 hrs by CCK8 assay; format: functional
[13] = test system: BaF3; test: cells; conditions: Mus musculus, BaF3, 72 h; remark: listed apart in the source
[14] = test system: BaF3; test: cells; conditions: Mus musculus, BaF3, 72 h; remark: listed apart in the source
[15] = target: Receptor-type tyrosine-protein kinase FLT3 (Homo sapiens, UniProt P36888); test: Binding affinity to human FLT3 assessed as dissociation constant
[16] = Antiproliferative activity against human MOLM16 cells expressing FLT3-ITD mutant assessed as inhibition of cell proliferation measured after 72 hrs by celltiter-glo luminescent cell viability assay; format: functional, cell-based, MOLM-16; conditions: MOLM16, 72 h
[17] = test system: MV4-11; test: Antiproliferative activity against human MV4-11 cells assessed as reduction in cell proliferation measured after 24 hrs by MTT assay; format: functional, cell-based; conditions: MV4-11, 24 h
[18] = test system: MV4-11; test: Antiproliferative activity against human MV4-11 cells assessed as cell growth inhibition measured after 72 hrs by cell titer-Blue assay; format: functional, cell-based; conditions: MV4-11, 72 h
[19] = target: Receptor-type tyrosine-protein kinase FLT3 (Homo sapiens, UniProt P36888, D835Y); test: Inhibition of FLT3-D835Y mutant phosphorylation in human MOLM-14 cell incubated for 2 hrs; format: cell-based
[20] = test system: MOLM-14; test: Antiproliferative activity against human MOLM-14 cells assessed as cell growth inhibition measured after 72 hrs by cell titer-Blue assay; format: functional, cell-based; conditions: MOLM-14, 72 h
[21] = target: T2, Receptor-type tyrosine-protein kinase FLT3 (Homo sapiens, UniProt P36888, ITD); test: Inhibition of FLT3-ITD mutant phosphorylation in human MOLM-14 cell incubated for 2 hrs; format: cell-based
[22] = target: T2, Receptor-type tyrosine-protein kinase FLT3; test: Inhibition of FLT3-ITD mutant (unknown origin) expressed in mouse BaF3 cells assessed as inhibition; format: cell-based
[23] = target: T1, Receptor-type tyrosine-protein kinase FLT3; test: Inhibition of FLT3 (unknown origin) by ADP-Glo kinase assay
[24] = test system: MOLM-13; test: Antiproliferative activity against human MOLM-13 cells assessed as reduction in cell viability measured after 48 hrs by MTT assay; format: functional, cell-based; conditions: MOLM-13, 48 h
[25] = target: T2, Receptor-type tyrosine-protein kinase FLT3
[26] = test system: MV4-11; test: Growth inhibition of human MV4-11 cells incubated for 72 hrs by CCK-8 assay; format: functional
[27] = test system: 697; test: Cytotoxicity activity against human 697 cells assessed as reduction cell viability at 50 uM incubated for 48 hrs by ATP-glo assay; format: functional, cell-based; conditions: Homo sapiens, 697, 48 h
[28] = test system: HL-60; test: Growth inhibition of human HL-60 cells incubated for 4 days by WST assay; format: functional; conditions: HL-60, 96 h, time 4 day
[29] = test system: MOLM-14; test: Growth inhibition of human MOLM-14 cells incubated for 72 hrs by CCK-8 assay; format: functional
[30] = test system: MOLM-13; test: Growth inhibition of human MOLM-13 cells incubated for 72 hrs by CCK-8 assay; format: functional

- IC50 [2]: 2200 nM
- IC5 [9]: 32 nM
Structure (SMILES): Cc1cc2ncc(-c3ccccc3)nc2cc1C [AG1295]

- GI50 [10]: 110 nM
- IC50 [11]: 2.7 nM
- GI50 [12]: 6300 nM
Structure (SMILES): O=C(c1ccncc1)N1CCc2nc(-c3cc4cc(F)ccc4[nH]c3=O)[nH]c2C1

- IC50 [1]: 13 nM
- IC50 [17]: 12.3 nM
Structure (SMILES): C[C@]12O[C@H](C[C@H](O)[C@H]1O)n1c3ccccc3c3c4c(c5c6ccccc6n2c5c31)C(=O)NC4=O
- IC50 [16]: 27 nM

- IC50 [25]: 5.3 nM
- IC50 [2]: 24.8 nM
- IC50 [5]: 23.6 nM
Structure (SMILES): Cc1[nH]c(/C=C2\C(=O)Nc3ccc(F)cc32)c(C)c1NC(=O)[C@@H]1CCCN1

- GI50 [28]: 250 nM
- GI50 [26]: 540 nM
Structure (SMILES): CNCCOc1ccc(-c2sc3nc(-c4cccs4)nc(NN4C(=O)C=C(C)C4=O)c3c2C)cc1

The next lines start with the molecule.

Structure (SMILES): CC1(COc2ccc3c(c2)ncn3-c2ccc3cccc(N4CCC(N)CC4)c3n2)COC1 [CRENOLANIB]
- IC50 [1]: 2 nM
- IC50 [2]: 1.3 nM
- IC50 [3]: 0.92 nM
- IC50 [4]: 2 nM
- IC50 [5]: 4.9 nM
- IC50 [6]: 1.3 nM
- IC50 [7]: 2 nM
- IC50 [8]: 2.9 nM

Structure (SMILES): CN1CCC(Nc2nc(Nc3ccc(Oc4ccccc4)cc3)c3c(=O)[nH]cc(Br)c3n2)CC1 [DENFIVONTINIB]
- IC50 [2]: 3.5 nM
- IC50 [4]: 7.5 nM
- IC50 [13]: 21.4 nM
- IC50 [14]: 38.1 nM

Structure (SMILES): CC(C)Nc1ccnc(Nc2cccc(-c3cccnc3)c2)n1
- EC50 [3]: 25 nM
- Kd [15]: 3.6 nM

Structure (SMILES): Cc1ncc(C(=O)Nc2ccc(CN3CCN(C)CC3)c(C(F)(F)F)c2)cc1C#Cc1c(N)ncc2ccc(F)cc12
- IC50 [18]: 0.5 nM
- IC50 [19]: 16.6 nM
- IC50 [20]: 0.5 nM
- IC50 [21]: 0.5 nM

Structure (SMILES): COc1cc2c(Oc3ccc(NC(=O)Nc4cccc(C)c4)cc3F)ccnc2cc1OCCCN1CCOCC1
- IC50 [22]: 1.1 nM
- IC50 [23]: 9 nM
- IC50 [24]: 0.24 nM

Structure (SMILES): CC(C)(C)c1cc(NC(=O)Nc2ccc(-n3nc(-c4ccc(OCCN5CCOCC5)cc4)c4c(N)ncnc43)cc2)no1
- GI50 [26]: < 0.3 nM

Structure (SMILES): CCCCNc1ncc2c(-c3ccc(CN4CCN(C)CC4)cc3)cn([C@H]3CC[C@H](O)CC3)c2n1
- IC50 [27]: 2.7 nM
- IC50 [7]: 14 nM

Structure (SMILES): CCCNc1nc(Nc2ccc(C#N)cc2)ncc1C#CCCCNC(=O)[C@H](C)N(C)C(=O)/C=C/CN(C)C [FF-10101]
- GI50 [29]: 1.5 nM
- GI50 [26]: 0.83 nM
- GI50 [30]: 1.1 nM
